Among the data in US20210230170A1, “KRAS G12C INHIBITORS” (Mirati Therapeutics, Inc., priority 2018, published 2021) are IC50 values, retold here.

Bounds are passed on as bounds.

T1 sequence (P01116 1-188 isoform P01116-2 G12C): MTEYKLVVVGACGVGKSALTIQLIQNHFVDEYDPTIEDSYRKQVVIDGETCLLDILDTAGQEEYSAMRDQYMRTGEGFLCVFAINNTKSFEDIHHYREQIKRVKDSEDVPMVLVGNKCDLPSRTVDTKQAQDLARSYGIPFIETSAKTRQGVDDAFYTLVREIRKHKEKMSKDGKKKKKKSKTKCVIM

The assay addresses T1, KRas G12C (Homo sapiens, UniProt P01116, G12C).
T1 construct: NCI-H358 cells (ATCC CRL-5807) express KRas G12C; host or cells: NCI-H358
Kind of assay: Inhibition of KRas G12C in NCI-H358 cells measured by phosphorylated ERK (Phospho-ERK). The assay is classed as cell-based. The following applies: pERK(Thr202/Tyr204) signal normalized with GAPDH, percent of DMSO control, 3 hours compound treatment. As for the experimental part:
The cellular inhibition of KRAs G12C by exemplary compounds of the present invention was determined by measuring the amount of a downstream marker of KRas activity, phosphorylated ERK (“Phospho-ERK”).
NCI-H358 cells (ATCC CRL-5807) express KRas G12C and were grown in RPMI medium supplemented with 10% fetal bovine serum, penicillin/streptomycin and 10 mM HEPES. Cells were plated in poly-D-Lysine coated 96-well plates at a concentration of 50,000 cells/well and allowed to attach for 8-12 hours. Diluted compounds were then added at a final concentration of 0.5% DMSO. After 3 hours, the medium was removed, 150 μL of 4% formaldehyde was added and the plates were incubated for 20 minutes. The plates were washed with PBS, and permeabilized using 150 μL of ice cold 100% methanol for 10 minutes. Non-specific antibody binding to the plates was blocked using 100 μL Licor Blocking Buffer (Li-Cor Biotechnology, Lincoln Nebr.) for 1 hour at room temperature. Positive control samples and samples lacking cells were parallel processed with test samples as standards.
The amount Phospho-ERK was determined using an antibody specific for the phosphorylated form of ERK and compared to the amount of GAPDH. Primary antibodies used for detection were added as follows: Phospho-ERK (Cell Signaling cs9101) diluted 1:500 and GAPDH (Millipore MAB374) diluted 1:5000 in Licor block+0.05% Tween 20. The plates were incubated for 2 hours at room temperature. The plates were washed with PBS+0.05% Tween 20.
Secondary antibodies used to visualize primary antibodies were added as follows: Anti-rabbit-680 diluted 1:1000 and Anti-mouse-800 diluted 1:1000 in Licor Block+0.05% Tween 20 and incubated for 1 hour at room temperature. The plates were washed with PBS+0.05% Tween 20. A 100 μL aliquot of PBS was added to each well and the plates were read on a LICOR AERIUS plate reader.
The pERK(Thr202/Tyr204) signal was normalized with the GAPDH signal and percent of DMSO control values were calculated. IC50 values were generated using a 4 parameter fit of the dose response curve. Key: “A”≤500 nM; “B”>500 nM and ND=not determined.
`C=CC(=O)N1CCN(c2nc(OC[C@@H]3CCCN3C)nc3c2CCCN(c2nccc4cccc(C)c24)C3)C[C@@H]1CC#N` [Example 17, 2-[(2S)-4-[8-(8-methyl-1-isoquinolyl)-2-[[(2S)-1-methylpyrrolidin-2-yl]methoxy]-5,6,7,9-tetrahydropyrimido[4,5-c]azepin-4-yl]-1-prop-2-enoyl-piperazin-2-yl]acetonitrile] yielded an IC50 of at most 0.5 µM.

Consider `C=CC(=O)N1CCN(c2nc(OC[C@@H]3CCCN3C)nc3c2CCCN(c2cccc4cccc(C)c24)C3)C[C@@H]1CC#N` [Example 1, 2-[(2S)-4-[8-(8-methyl-1-naphthyl)-2-[[(2S)-1-Methylpyrrolidin-2-yl]methoxy]-5,6,7,9-tetrahydropyrimido[4,5-c]azepin-4-yl]-1-prop-2-enoyl-piperazin-2-yl]acetonitrile], for which the IC50 was at most 0.5 µM.

`C=C(F)C(=O)N1CCN(c2nc(OC[C@@H]3CCCN3C)nc3c2CCCN(c2c(C)ccc4[nH]ncc24)C3)C[C@@H]1CC#N` [Example 20, 2-[(2S)-1-(2-fluoroprop-2-enoyl)-4-[8-(5-methyl-1H-indazol-4-yl)-2-[[(2S)-1-methylpyrrolidin-2-yl]methoxy]-5,6,7,9-tetrahydropyrimido[4,5-c]azepin-4-yl]piperazin-2-yl]acetonitrile] came in with an IC50 of over 0.5 µM.

As to `C=CC(=O)N1CCN(c2nc(OC[C@@H]3CCCN3C)nc3c2CCCN(c2cccc4ccccc24)C3)C[C@@H]1CC#N` [Example 6, 2-[(2S)-4-[2-[[(2S)-1-methylpyrrolidin-2-yl]methoxy]-8-(1-naphthyl)-5,6,7,9-tetrahydropyrimido[4,5-c]azepin-4-yl]-1-prop-2-enoyl-piperazin-2-yl]acetonitrile], the half-inhibitory concentration (IC50) is over 0.5 µM.

`C=CC(=O)N1CCN(c2nc(OC[C@@H]3CCCN3C)nc3c2CCCN(c2cccc(F)c2C)C3)C[C@@H]1CC#N` [Example 9, 2-((S)-1-acryloyl-4-(8-(3-fluoro-2-methylphenyl)-2-(((S)-1-methylpyrrolidin-2-yl)methoxy)-6,7,8,9-tetrahydro-5H-pyrimido[4,5-c]azepin-4-yl)piperazin-2-yl)acetonitrile] showed an IC50 of at most 0.5 µM.

In the case of `C=CC(=O)N1CCN(c2nc(OC[C@@H]3CCCN3C)nc3c2CCCN(c2cccc(F)c2C(F)(F)F)C3)C[C@@H]1CC#N` [Example 14, 2-[(2S)-4-[8-[3-fluoro-2-(trifluoromethyl)phenyl]-2-[[(2S)-1-methylpyrrolidin-2-yl]methoxy]-5,6,7,9-tetrahydropyrimido[4,5-c]azepin-4-yl]-1-prop-2-enoyl-piperazin-2-yl]acetonitrile], the IC50 is at most 0.5 µM.

Consider `C=CC(=O)N1CCN(c2nc(OC[C@@H]3CCCN3C)nc3c2CCCN(c2cccc(C(C)C)c2)C3)C[C@@H]1CC#N` [Example 8, 2-[(2S)-4-[8-(3-isopropylphenyl)-2-[[(2S)-1-methylpyrrolidin-2-yl]methoxy]-5,6,7,9-tetrahydropyrimido[4,5-c]azepin-4-yl]-1-prop-2-enoyl-piperazin-2-yl]acetonitrile], for which the IC50 is over 0.5 µM.

For the molecule `C=CC(=O)N1CCN(c2nc(OC[C@@H]3CCCN3C)nc3c2CCCN(c2cccc4c(F)cccc24)C3)C[C@@H]1CC#N` [Example 12, 2-((S)-1-acryloyl-4-(8-(5-fluoronaphthalen-1-yl)-2-(((S)-1-methylpyrrolidin-2-yl)methoxy)-6,7,8,9-tetrahydro-5H-pyrimido[4,5-c]azepin-4-yl)piperazin-2-yl)acetonitrile], the IC50 is at most 0.5 µM.

`C=CC(=O)N1CCN(c2nc(OC[C@@H]3CCCN3C)nc3c2CCCN(c2ccccc2)C3)C[C@@H]1CC#N` [Example 5, 2-[(2S)-4[2-[[(2S)-1-methylpyrrolidin-2-yl]methoxy]-8-phenyl-5,6,7,9-tetrahydropyrimido[4,5-c]azepin-4-yl]-1-prop-2-enoyl-piperazin-2-yl]acetonitrile] yielded a 50% inhibitory concentration (IC50) of over 0.5 µM.

`C=CC(=O)N1CCN(c2nc(OC[C@@H]3CCCN3C)nc3c2CCCN(c2c(C)ccc4[nH]ncc24)C3)C[C@@H]1CC#N` [Example 19, 2-[(2S)-4-[8-(5-methyl-1H-indazol-4-yl)-2-[[(2S)-1-methylpyrrolidin-2-yl]methoxy]-5,6,7,9-tetrahydropyrimido[4,5-c]azepin-4-yl]-1-prop-2-enoyl-piperazin-2-yl]acetonitrile] displayed an IC50 of over 0.5 µM.

With `C=CC(=O)N1CCN(c2nc(OC[C@@H]3CCCN3C)nc3c2CCCN(c2c(F)ccc4ccccc24)C3)C[C@@H]1CC#N` [Example 10, 2-((S)-1-acryloyl-4-(8-(2-fluoronaphthalen-1-yl)-2-(((S)-1-methylpyrrolidin-2-yl)methoxy)-6,7,8,9-tetrahydro-5H-pyrimido[4,5-c]azepin-4-yl)piperazin-2-yl)acetonitrile], the IC50 is at most 0.5 µM.

The molecule `C=CC(=O)N1CCN(c2nc(OC[C@@H]3CCCN3C)nc3c2CCCN(c2c(C)cccc2F)C3)C[C@@H]1CC#N` [Example 18, 2-[(2S)-4-[8-(2-fluoro-6-methyl-phenyl)-2-[[(2S)-1-methylpyrrolidin-2-yl]methoxy]-5,6,7,9-tetrahydropyrimido[4,5-c]azepin-4-yl]-1-prop-2-enoyl-piperazin-2-yl]acetonitrile] returned a 50% inhibitory concentration (IC50) of at most 0.5 µM.

`C=CC(=O)N1CCN(c2nc(OC[C@@H]3CCCN3C)nc3c2CCCN(c2cccc4cccc(Cl)c24)C3)C[C@@H]1CC#N` [Example 7, 2-((S)-1-acryloyl-4-(8-(8-chloronaphthalen-1-yl)-2-(((S)-1-methylpyrrolidin-2-yl)methoxy)-6,7,8,9-tetrahydro-5H-pyrimido[4,5-c]azepin-4-yl)piperazin-2-yl)acetonitrile] had an IC50 of over 0.5 µM.

`C=CC(=O)N1CCN(c2nc(OC[C@@H]3CCCN3C)nc3c2CCCN(c2c(C)ccc4ccccc24)C3)C[C@@H]1CC#N` [Example 3, 2-[(2S)-4-[8-(2-methyl-1-naphthyl)-2-[[(2S)-1-methylpyrrolidin-2-yl]methoxy]-5,6,7,9-tetrahydropyrimido[4,5-c]azepin-4-yl]-1-prop-2-enoyl-piperazin-2-yl]acetonitrile] yielded an IC50 of at most 0.5 µM.

`C=C(F)C(=O)N1CCN(c2nc(OC[C@@H]3CCCN3C)nc3c2CCCN(c2cccc4cccc(C)c24)C3)C[C@@H]1CC#N` [Example 2, 2-[(2S)-1-(2-fluoroprop-2-enoyl)-4-[8-(8-methyl-1-naphthyl)-2-[[(2S)-1-methylpyrrolidin-2-yl]methoxy]-5,6,7,9-tetrahydropyrimido[4,5-c]azepin-4-yl]piperazin-2-yl]acetonitrile]: the IC50 is over 0.5 µM.

`C=C(F)C(=O)N1CCN(c2ncnc3c2CCCN(c2cccc4cccc(C)c24)C3)C[C@@H]1CC#N` [Example 23, 2-[(2S)-1-(2-fluoroprop-2-enoyl)-4-[8-(8-methyl-1-naphthyl)-5,6,7,9-tetrahydropyrimido[4,5-c]azepin-4-yl]piperazin-2-yl]acetonitrile] came in with a half-maximal inhibitory concentration (IC50) of over 0.5 µM.

`C=CC(=O)N1CCN(c2nc(OC[C@@H]3CCCN3C)nc3c2CCCN(c2ccccc2CO)C3)C[C@@H]1CC#N` [Example 16, 2-[(2S)-4-[8-[2-(hydroxymethyl)phenyl]-2-[[(2S)-1-methylpyrrolidin-2-yl]methoxy]-5,6,7,9-tetrahydropyrimido[4,5-c]azepin-4-yl]-1-prop-2-enoyl-piperazin-2-yl]acetonitrile]: the IC50 is over 0.5 µM.

`C=CC(=O)N1CCN(c2nc(OC[C@@H]3CCCN3C)nc3c2CCCN(c2ncccc2C(F)(F)F)C3)C[C@@H]1CC#N` [Example 15, 2-[(2S)-4-[2-[[(2S)-1-methylpyrrolidin-2-yl]methoxy]-8-[3-(trifluoromethyl)-2-pyridyl]-5,6,7,9-tetrahydropyrimido[4,5-c]azepin-4-yl]-1-prop-2-enoyl-piperazin-2-yl]acetonitrile] displayed an IC50 of over 0.5 µM.

The molecule `C=C(F)C(=O)N1CCN(c2nc(OC[C@@H]3CCCN3C)nc3c2CCCN(c2cccc4[nH]ncc24)C3)C[C@@H]1CC#N` [Example 26, 2-((S)-4-(8-(1H-indazol-4-yl)-2-(((S)-1-methylpyrrolidin-2-yl)methoxy)-6,7,8,9-tetrahydro-5H-pyrimido[4,5-c]azepin-4-yl)-1-(2-fluoroacryloyl)piperazin-2-yl)acetonitrile] showed an IC50 of over 0.5 µM.

As for `C=CC(=O)N1CCN(c2nc(OC[C@@H]3CCCN3C)nc3c2CCCN(c2ccccc2C)C3)C[C@@H]1CC#N` [Example 4, 2-[(2S)-4-[2-[[(2S)-1-methylpyrrolidin-2-yl]methoxy]-8-(o-tolyl)-5,6,7,9-tetrahydropyrimido[4,5-c]azepin-4-yl]-1-prop-2-enoyl-piperazin-2-yl]acetonitrile], the half-maximal inhibitory concentration (IC50) was over 0.5 µM.

The IC50 is the concentration needed to halve the response being measured. Read a low IC50 as inhibition by little substance.
